Drawing on patent US20120101032A1, “NOVEL MACROCYCLIC INHIBITORS OF HEPATITIS C VIRUS REPLICATION” (priority 2010, published 2012), this text covers IC50 and EC50 for 13 compounds.

As a reminder, the pIC50 is the negative decadic logarithm of the IC50, by convention in mol/L. The term pEC50 denotes the negative decadic logarithm of the EC50, by convention in mol/L.

pEC50, pIC50: −log10 of the molar value. Like-named read-outs stand apart in the source and are kept apart here. Some results are limits rather than exact numbers.

In one test the target is NS3/NS4 complexes (Hepatitis C virus genotype 1a, UniProt P27958). Kind of test: biochemical. To be noted: NS3-NS4 activity; 23° C., pH 7.5, 25 μM NS4A peptide; read-out: IC50. The text has this:
NS3-NS4 inhibition activity can be determined using known assay methods. For example, NS3/NS4 complexes may be formed and inhibitory concentrations of test compounds determined as described in U.S. Patent Application Publication Number 2007/0054842 paragraph numbers 1497-1509, which is incorporated herein by reference in its entirety. Similarly, hepatitis C replicon EC50 may be determined using known assay methods such as described in U.S. Patent Application Publication Number 2007/0054842 paragraph numbers 1510-1515, which is incorporated herein by reference in its entirety. Assays may be conducted at ambient temperature (23° C.) in assay buffer containing 50 mM Tris-HCl, pH 7.5, 15% glycerol, 0.6 mM Lauryldimethylamine Oxide (LDAO), 25 μM NS4A peptide, and 10 mM Dithiothreitol (DTT).

Another test deals with hepatitis C replicon. Kind of test: hepatitis C replicon EC50 assay. The class given is cell-based. As to conditions: Hepatitis C virus. The text has this: NS3-NS4 inhibition activity can be determined using known assay methods.
On the technique in general: In antiviral work, replicon cells carry a viral genome segment that copies itself.

Setting [1] is: hepatitis C replicon, read-out: EC50.

Sequence of NS3/NS4 complexes (P27958 1027-1657, one chain of several): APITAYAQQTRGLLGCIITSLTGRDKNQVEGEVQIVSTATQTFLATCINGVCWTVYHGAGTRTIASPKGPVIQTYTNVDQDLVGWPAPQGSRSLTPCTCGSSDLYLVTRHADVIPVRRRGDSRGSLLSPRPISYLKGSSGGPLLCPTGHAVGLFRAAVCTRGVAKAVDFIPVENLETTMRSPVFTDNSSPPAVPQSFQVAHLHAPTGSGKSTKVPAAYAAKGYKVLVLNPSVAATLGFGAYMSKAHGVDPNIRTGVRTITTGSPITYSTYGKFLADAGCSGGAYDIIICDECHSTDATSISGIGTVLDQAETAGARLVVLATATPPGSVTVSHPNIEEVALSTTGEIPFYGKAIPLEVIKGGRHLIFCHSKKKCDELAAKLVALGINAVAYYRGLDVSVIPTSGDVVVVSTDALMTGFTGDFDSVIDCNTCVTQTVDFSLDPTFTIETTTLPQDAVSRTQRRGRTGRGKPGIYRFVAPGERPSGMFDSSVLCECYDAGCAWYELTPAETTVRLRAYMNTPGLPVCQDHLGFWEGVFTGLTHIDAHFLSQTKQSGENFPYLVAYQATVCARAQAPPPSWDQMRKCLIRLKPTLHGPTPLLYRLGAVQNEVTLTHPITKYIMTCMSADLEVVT

`CC(C)n1c(O[C@@H]2C[C@H]3C(=O)N[C@]4(C(=O)NS(=O)(=O)N(C)C)C[C@H]4/C=C\CCCCC[C@H](NC(=O)OC(C)(C)C)C(=O)N3C2)nc2c(-c3cscn3)cccc21` [Compound 163]: the pIC50 on NS3/NS4 complexes was above 8.00. Besides, in the test with hepatitis C replicon (setting [1]), the negative-log EC50 (pEC50) was above 8.00.

In the case of `CC(C)n1c(O[C@@H]2C[C@H]3C(=O)N[C@]4(C(=O)NS(=O)(=O)N(C)C)C[C@H]4/C=C\CCCCC[C@H](NC(=O)OC(C)(C)C)C(=O)N3C2)nc2c(-c3csc(-c4ccc(F)c(F)c4)n3)cccc21` [Compound 164], the negative-log IC50 (pIC50) on NS3/NS4 complexes was 7.00 to 8.00. For the same compound, in the test on hepatitis C replicon (setting [1]), the negative logarithm of the EC50 (pEC50) is below 7.00.

In the case of `CC(C)n1c(O[C@@H]2C[C@H]3C(=O)N[C@]4(C(=O)NS(=O)(=O)C5(C)CC5)C[C@H]4/C=C\CCCCC[C@H](NC(=O)OC4CCCC4)C(=O)N3C2)nc2c(-c3nc(Cc4ccccc4)cs3)cccc21` [Compound 165], the pIC50 at NS3/NS4 complexes is above 8.00. The negative logarithm of the EC50 (pEC50) in the test with hepatitis C replicon (setting [1]) was above 8.00.

With `CC(C)n1c(O[C@@H]2C[C@H]3C(=O)N[C@]4(C(=O)NS(=O)(=O)C5(C)CC5)C[C@H]4/C=C\CCCCC[C@H](NC(=O)O[C@@H]4C[C@@H]5C[C@@H]5C4)C(=O)N3C2)nc2c(-c3nc(Cc4ccccc4)cs3)cccc21` [Compound 166], the negative logarithm of the IC50 (pIC50) on NS3/NS4 complexes is above 8.00. Moreover, the pEC50 in the test on hepatitis C replicon (setting [1]) is above 8.00.

Take `Cc1ccc2c(nc(O[C@@H]3C[C@H]4C(=O)N[C@]5(C(=O)NS(=O)(=O)N(C)C)C[C@H]5/C=C\CCCCC[C@H](NC(=O)OC(C)(C)C)C(=O)N4C3)n2C(C)C)c1-c1nc(C(C)C)cs1` [Compound 167]: the negative logarithm of the IC50 (pIC50) at NS3/NS4 complexes is above 8.00. For the same compound, the negative logarithm of the EC50 (pEC50) with hepatitis C replicon (setting [1]) was 7.00 to 8.00.

In the case of `Cc1ccc2c(nc(O[C@@H]3C[C@H]4C(=O)N[C@]5(C(=O)NS(=O)(=O)N(C)C)C[C@H]5/C=C\CCCCC[C@H](NC(=O)OC(C)(C)C)C(=O)N4C3)n2C(C)C)c1-c1nc(C2CCCC2)cs1` [Compound 168], the pIC50 on NS3/NS4 complexes is above 8.00. For the same compound, the negative-log EC50 (pEC50) with hepatitis C replicon (setting [1]) is 7.00 to 8.00.

As for `CC(C)n1c(O[C@@H]2C[C@H]3C(=O)N[C@]4(C(=O)NS(=O)(=O)N(C)C)C[C@H]4/C=C\CCCCC[C@H](N)C(=O)N3C2)nc2c(-c3csc(N4CCCCC4)n3)cccc21` [Compound 169], the negative-log IC50 (pIC50) at NS3/NS4 complexes was above 8.00. Also, in the test with hepatitis C replicon (setting [1]), the negative-log EC50 (pEC50) was below 7.00.

With `CC(C)n1c(O[C@@H]2C[C@H]3C(=O)N[C@]4(C(=O)NS(=O)(=O)C5(C)CC5)C[C@H]4/C=C\CCCCC[C@H](N)C(=O)N3C2)nc2c(-c3csc(N4CCCCC4)n3)cccc21` [Compound 170], on NS3/NS4 complexes, the negative logarithm of the IC50 (pIC50) was above 8.00. The compound also showed a pEC50 in the test with hepatitis C replicon of 7.00 to 8.00.

For `CC(C)n1c(O[C@@H]2C[C@H]3C(=O)N[C@]4(C(=O)NS(=O)(=O)C5CC5)C[C@H]4/C=C\CCCCC[C@H](NC(=O)OC(C)(C)C)C(=O)N3C2)nc2c(-c3nc(C4CCCCC4)cs3)cccc21` [Compound 172], at NS3/NS4 complexes, the negative-log IC50 (pIC50) is above 8.00. Moreover, the negative-log EC50 (pEC50) in the test with hepatitis C replicon (setting [1]) is above 8.00.

Turning to `CC(C)n1c(O[C@@H]2C[C@H]3C(=O)N[C@]4(C(=O)NS(=O)(=O)C5CC5)C[C@H]4/C=C\CCCCC[C@H](N)C(=O)N3C2)nc2c(-c3nc(C4CCCCC4)cs3)cccc21` [Compound 173], the negative logarithm of the IC50 (pIC50) at NS3/NS4 complexes is above 8.00. In addition, in the test on hepatitis C replicon (setting [1]), the pEC50 was below 7.00.

As to `CC(C)n1c(O[C@@H]2C[C@H]3C(=O)N[C@]4(C(=O)NS(=O)(=O)C5(C)CC5)C[C@H]4/C=C\CCCCC[C@H](NC(=O)OC(C)(C)C)C(=O)N3C2)nc2c(-c3nc(C(F)(F)F)cs3)cccc21` [Compound 174], the negative-log IC50 (pIC50) at NS3/NS4 complexes was above 8.00. Also, in the test on hepatitis C replicon (setting [1]), the pEC50 was above 8.00.

On to `CC(C)n1c(O[C@@H]2C[C@H]3C(=O)N[C@]4(C(=O)NS(=O)(=O)C5(C)CC5)C[C@H]4/C=C\CCCCC[C@H](N)C(=O)N3C2)nc2c(-c3nc(C(F)(F)F)cs3)cccc21` [Compound 175], for which the pIC50 at NS3/NS4 complexes is above 8.00. In addition, the negative logarithm of the EC50 (pEC50) in the test on hepatitis C replicon (setting [1]) is 7.00 to 8.00.

Take `CC(C)n1c(O[C@@H]2C[C@H]3C(=O)N[C@]4(C(=O)NS(=O)(=O)C5(C)CC5)C[C@H]4/C=C\CCCCC[C@H](NC(=O)OC(C)(C)C)C(=O)N3C2)nc2c(-c3csc(C(F)(F)F)n3)cccc21` [Compound 176]: the pIC50 at NS3/NS4 complexes is above 8.00. Moreover, in the test on hepatitis C replicon (setting [1]), the negative logarithm of the EC50 (pEC50) is above 8.00.
